What was measured:
Format in all cases: cell-based
MDA-MB-231 cells = test: Tumor cell proliferation (Alamar Blue), MDA-MB-231; conditions: Homo sapiens, MDA-MB-231, 72 h
Method: (§1) Human tumor cells (e.g., HCT116 or MDA-MB-231 cells), are seeded in a Costar 96-well plate at 3.0×10^3 cells/well and grown in 150 μl of RPMI complete media (Invitrogen Corporation, Grand Island, N.Y.) containing 10% fetal bovine serum (Hyclone, Logan, Utah) at 37° C. for 16 h in an incubator with 5% CO2. To each well, 50 μl of additional growth media containing 40 μM to 18 nM concentrations of compound with 0.4% DMSO is added. Cells are grown for another 72 h at 37° C. with 5% CO2. 20 μl of Alamar Blue (Trek Diagnostic Systems, Inc., Cleveland, Ohio) reagent is added to each well and incubated for 3 h at 37° C. Plates are read in a SpectraMax Gemini (Molecular Devices, Calif.) with 544 nm excitation and 590 nm emission wavelength. IC50 values are determined by linear regression analysis of log drug concentration versus percent inhibition.

HCT116 cells = test: Tumor cell proliferation (Alamar Blue), HCT116; conditions: Homo sapiens, HCT-116, 72 h
Method: as §1

[1] = test system: VEGF stimulated Phospho-ERK in HUVEC; test: Growth factor stimulated p-ERK assay in HUVECs (VEGF stimulation, ERK1/2 Bioplex); conditions: Homo sapiens, compound 2 hrs, then 50 ng/ml VEGF 10 min; for inhibition at 0.1 µM: @ 100 nM
Method: Growth Factor Stimulated p-ERK assay in HUVECs
Exponentially growing human endothelial HUVECs cells (human umbilical vein endothelial cells, cat# CC-2517, Cambrex, Walkersville, Md.) were seeded at twenty five thousand cells/well in 96 well plates in EBM-2 MV medium with growth factors (cat# CC-3202, Cambrex) and grown at 37° C. in 5% CO2. Sixteen hours post-plating, the cells were changed to serum-free medium (RPMI 1640 containing 0.1% BSA (bovine serum albumin) and compounds were added at different concentrations for 2 hrs, after which the cells were stimulated for 10 min with 50 ng/ml of either VEGF (vascular endothelial growth factor, Protein Sciences, Meriden, Conn.) or bFGF (basic fibroblast growth factor cat# PHG0026, Biosource International, Camarillo, Calif.). The rest of the assay was performed per manufacturer indications for the ERK½ Bioplex assay (cat#171-304004, Bio-Rad, Hercules, Calif.). After removing culture medium by aspiration, the cells were quickly rinsed with 100 μl of cell wash buffer A to stop treatment reaction. Eighty microliters of cell lysis buffer were then immediately added to each well of the 96 well plate which was put on ice. Cells in each well were lysed by pipetting up and down 5 times with a multi-channel pipet. The plate was then agitated on a microtiter plate shaker at 300 rpm for 20 min at 4° C. Cellular debris were pelleted by centrifugation at 4500 g for 15 min at 4° C. and the supernatant was collected. Forty five microliters of supernatant was diluted with an equal volume of Bio-Plex phosphoprotein assay Buffer B, The coupled and color coated beads were added into a 96 well filter plate, and the prepared lysates were added. The beads and lysate mixture was incubated at room temperature for 15-18 hrs. The following day, the plate was vacuum-filtered and then washed 3×. Twenty-five microliters of detection antibody solution were added to each well and the plate was then incubated for 30 min at room temperature. The plate was then vaccum-filtered and washed as described previously. Fifty microliters of streptavidin-PE solution was added to each well, the plate was incubated for 10 min at room temperature and then was then vaccum-filtered and washed as described above. One hundred twenty-five microliters of resuspension buffer was added to each well and data were acquired on the Luminex 100 instrument (Bio-Rad).

Row | SMILES | IC50 (MDA-MB-231 cells; bounds given in μM) [µM] | IC50 (HCT116 cells; bounds given in μM) [µM] | IC50 (MDA-MB-231 cells) [µM] | inhibition at 0.1 µM [1] [%] | inhibition at 1 µM [1] [%] | further results
1 | CNC(=O)c1cn2ncnc(N)c2c1-c1ccc(NC(=O)Nc2cc(C(C)(C)C)ccn2)cc1 [Example 73, 4-amino-5-[4-({[(4-tert-butylpyridin-2-yl)amino]carbonyl}amino)phenyl]-N-methylpyrrolo[2,1-f][1,2,4]triazine-6-carboxamide] | 1.5 to 5 | 1.5 to 5 | – | – | – | –
2 | COCCN(C)C(=O)c1cn2ncnc(N)c2c1-c1ccc(NC(=O)Nc2ccc(F)c(C(F)(F)F)c2)cc1 [Example 84, 4-amino-5-{4-[({[4-fluoro-3-(trifluoromethyl)phenyl]amino}carbonyl)amino]phenyl}-N-(2-methoxyethyl)-N-methylpyrrolo[2,1-f][1,2,4]triazine-6-carboxamide] | – | 5 to 10 | – | – | – | –
3 | Nc1ncnn2cc(CN3CCOCC3)c(-c3ccc(NC(=O)Nc4cc(C(F)(F)F)ccn4)cc3)c12 [Example 225, N-{4-[4-amino-6-(morpholin-4-ylmethyl)pyrrolo[2,1-f][1,2,4]triazin-5-yl]phenyl}-N′-[4-(trifluoromethyl)pyridin-2-yl]urea] | 1.5 to 5 | 1.5 to 5 | – | – | – | –
4 | Nc1ncnn2cc(CO)c(-c3ccc(NC(=O)Nc4cc(C(F)(F)F)ccc4F)c(F)c3)c12 [Example 251, N-{4-[4-amino-6-(hydroxymethyl)pyrrolo[2,1-f][1,2,4]triazin-5-yl]-2-fluorophenyl}-N′-[2-fluoro-5-(trifluoromethyl)phenyl]urea] | < 1.5 | – | > 0.5 | – | – | –
5 | Nc1ncnn2cc(C(=O)NC3CC3)c(-c3ccc(NC(=O)Nc4cc(C(F)(F)F)ccn4)cc3)c12 [Example 82, 4-amino-N-cyclopropyl-5-{4-[({[4-(trifluoromethyl)pyridin-2-yl]amino}carbonyl)amino]phenyl}pyrrolo[2,1-f][1,2,4]triazine-6-carboxamide] | < 1.5 | 1.5 to 5 | > 0.5 | – | – | –
6 | CC(C)(CN1CCOCC1)NC(=O)c1cn2ncnc(N)c2c1-c1ccc(NC(=O)Nc2cc(C(F)(F)F)ccc2Cl)cc1 [Example 149, 4-amino-5-{4-[({[2-chloro-5-(trifluoromethyl)phenyl]amino}carbonyl)amino]phenyl}-N-(1,1-dimethyl-2-morpholin-4-ylethyl)pyrrolo[2,1-f][1,2,4]triazine-6-carboxamide] | < 1.5 | 1.5 to 5 | > 0.5 | – | – | –
7 | CCOC(=O)c1cn2ncnc(N)c2c1-c1ccc(NC(=O)Nc2cc(C(C)(C)C)nn2-c2ccc(F)cc2)cc1 [Example 25, ethyl 4-amino-5-{4-[({[3-tert-butyl-1-(4-fluorophenyl)-1H-pyrazol-5-yl]amino}carbonyl)amino]phenyl}pyrrolo[2,1-f][1,2,4]triazine-6-carboxylate] | – | – | < 0.5 | – | – | IC50 (HCT116 cells): < 0.5 µM
8 | COCCOCc1cn2ncnc(N)c2c1-c1ccc(NC(=O)Nc2cc(C(C)(C)C)nn2-c2ccc(F)cc2)cc1 [Example 248, N-(4-{4-amino-6-[(2-methoxyethoxy)methyl]pyrrolo[2,1-f][1,2,4]triazin-5-yl}phenyl)-N′-[3-tert-butyl-1-(4-fluorophenyl)-1H-pyrazol-5-yl]urea] | < 1.5 | 1.5 to 5 | > 0.5 | – | – | –
9 | COCc1cn2ncnc(N)c2c1-c1ccc(NC(=O)Nc2cc(C(C)(C)C)nn2-c2ccc(F)cc2)cc1 [Example 217, N-{4-[4-amino-6-(methoxymethyl)pyrrolo[2,1-f][1,2,4]triazin-5-yl]phenyl}-N′-[3-tert-butyl-1-(4-fluorophenyl)-1H-pyrazol-5-yl]urea] | < 1.5 | 1.5 to 5 | > 0.5 | – | – | –
10 | Nc1ncnn2cc(C(=O)NC3CC3)c(-c3ccc(NC(=O)Nc4cc(C(F)(F)F)ccc4F)cc3)c12 [Example 69, 4-amino-N-cyclopropyl-5-{4-[({[2-fluoro-5-(trifluoromethyl)phenyl]amino}carbonyl)amino]phenyl}pyrrolo[2,1-f][1,2,4]triazine-6-carboxamide] | 1.5 to 5 | < 1.5 | – | – | – | IC50 (HCT116 cells): > 0.5 µM
11 | CCOC(=O)c1coc(-c2cn3ncnc(N)c3c2-c2ccc(NC(=O)Nc3cc(C(F)(F)F)ccc3F)cc2)n1 [Example 237, ethyl 2-(4-amino-5-{4-[({[2-fluoro-5-(trifluoromethyl)phenyl]amino}carbonyl)amino]phenyl}pyrrolo[2,1-f][1,2,4]triazin-6-yl)-1,3-oxazole-4-carboxylate] | 1.5 to 5 | – | – | – | – | IC50 (HCT116 cells): < 0.5 µM
12 | N#Cc1cn2ncnc(N)c2c1-c1ccc(NC(=O)Nc2cc(C(F)(F)F)ccc2F)c(F)c1 [Example 256, N-[4-(4-amino-6-cyanopyrrolo[2,1-f][1,2,4]triazin-5-yl)-2-fluorophenyl]-N′-[2-fluoro-5-(trifluoromethyl)phenyl]urea] | < 1.5 | < 1.5 | > 0.5 | – | – | IC50 (HCT116 cells): > 0.5 µM
13 | COCc1cn2ncnc(N)c2c1-c1ccc(NC(=O)Nc2cc(C(F)(F)F)ccc2F)c(F)c1 [Example 254, N-{4-[4-amino-6-(methoxymethyl)pyrrolo[2,1-f][1,2,4]triazin-5-yl]-2-fluorophenyl}-N′-[2-fluoro-5-(trifluoromethyl)phenyl]urea] | 1.5 to 5 | 1.5 to 5 | – | – | – | –
14 | Nc1ncnn2cc(CNCCC(F)(F)F)c(-c3ccc(NC(=O)Nc4cc(C(F)(F)F)ccc4F)cc3)c12 [Example 39, N-[4-(4-amino-6-{[(3,3,3-trifluoropropyl)amino]methyl}pyrrolo[2,1-f][1,2,4]triazin-5-yl)phenyl]-N′-[2-fluoro-5-(trifluoromethyl)phenyl]urea] | – | – | – | < 50 | > 50 | –
15 | CCOC(=O)c1cn2ncnc(N)c2c1-c1ccc(NC(=O)Nc2ccc(Cl)c(Cl)c2)cc1 [Example 18, ethyl 4-amino-S-[4-({[(3,4-dichlorophenyl)amino]carbonyl}amino)phenyl]pyrrolo[2,1-f][1,2,4]triazine-6-carboxylate] | – | – | – | < 50 | < 50 | inhibition at 10 µM [1]: > 50%
16 | Nc1ncnn2cc(CCCN3CCOCC3)c(-c3ccc(NC(=O)Nc4cc(C(F)(F)F)ccc4F)cc3)c12 [Example 66, N-{4-[4-amino-6-(3-morpholin-4-ylpropyl)pyrrolo[2,1-f][1,2,4]triazin-5-yl]phenyl}-N′-[2-fluoro-5-(trifluoromethyl)phenyl]urea] | – | – | – | < 50 | > 50 | –
17 | CCOC(=O)c1cn2ncnc(N)c2c1-c1ccc(NC(=O)Nc2cc(C(F)(F)F)ccc2F)cc1 [Example 1, ethyl 4-amino-5-{4-[({[2-fluoro-5-(trifluoromethyl)phenyl]amino}carbonyl)amino]phenyl}pyrrolo[2,1-f][1,2,4]triazine-6-carboxylate] | – | – | – | > 50 | – | –
18 | CCOC(=O)c1cn2ncnc(N)c2c1-c1ccc(NC(=O)Nc2ccccc2C(C)C)cc1 [Example 24, ethyl 4-amino-5-[4-({[(2-isopropylphenyl)amino]carbonyl}amino)phenyl]pyrrolo[2,1-f][1,2,4]triazine-6-carboxylate] | – | – | – | < 50 | > 50 | –
19 | Nc1ncnn2cc(C(=O)NCC3CCCO3)c(-c3ccc(NC(=O)Nc4cc(C(F)(F)F)ccc4F)cc3)c12 (centres unmarked) [Example 146, 4-amino-5-{4-[({[2-fluoro-5-(trifluoromethyl)phenyl]amino}carbonyl)amino]phenyl}-N-(tetrahydrofuran-2-ylmethyl)pyrrolo[2,1-f][1,2,4]triazine-6-carboxamide] | – | – | – | < 50 | > 50 | –
20 | Nc1ncnn2cc(C(=O)NCC(F)(F)F)c(-c3ccc(NC(=O)Nc4ccnc(C(F)(F)F)c4)cc3)c12 [Example 140, 4-amino-N-(2,2,2-trifluoroethyl)-5-{4-[({[2-(trifluoromethyl)pyridin-4-yl]amino}carbonyl)amino]phenyl}pyrrolo[2,1-f][1,2,4]triazine-6-carboxamide] | – | – | – | < 50 | < 50 | inhibition at 10 µM [1]: > 50%
